Earlier results in patent US20170157095A1, “ALLISARTAN ISOPROXIL SOLID DISPERSION AND PHARMACEUTICAL COMPOSITION” (SHENZHEN SALUBRIS PHARMACEUTICALS CO., LTD, priority 2014, published 2017).

**Q.** For CCCCc1nc(Cl)c(C(=O)OCOC(=O)OC(C)C)n1Cc1ccc(-c2ccccc2-c2nnn[nH]2)cc1 [Allisartan isoproxil, 2-butyl-4-chloro-1-[2′-(1H-tetrazol-5-yl)-1,1′-biphenyl-methyl]-imidazole-5-carboxylic acid, 1-[(isopropoxy)-carbonyloxy]-methyl ester], which solubility in water is on record?
**A.** Its solubility in water is “low”.
